Measured values reported in patent US9421237B2, “Tripeptide boronic acid or boronic ester, preparative method and use thereof” (PEKING UNIVERSITY, priority 2009, dated 2016).

How the values were obtained:
[1] = biological target: T1, 20S proteasome extracted from rat liver, chymotryptic-like (CT-L) activity (Rattus norvegicus, UniProt P18421+P28075); assay: Proteasome inhibition, chymotryptic-like (CT-L) activity, fluorescent peptide Suc-leu-leu-Val-Tyr-AMC; assay type: biochemical; conditions: rat liver 20S proteasome, 37° C., 1 h
T1 construct: 20S proteasome extracted from rat liver; from tissue; host or cells: rat liver
Method: (§1) The activities of the proteasome were assayed using fluorescent peptides: Suc-leu-leu-Val-Tyr-AMC (Suc represents succinyl, and AMC represents 7-amino-4-methylcoumarin, purchased from SIGMA) for determining chymotryptic-like (CT-L) activity; Z-Ala-Arg-Arg-AMC (Z represents benzyloxycarbonyl, purchased from Calbiochem) for determining trypsin-like (TL) activity; and Z-leu-leu-Glu-βNA (βNA represents β-naphtylamide, purchased from SIGMA) for determining peptidyl-glutamyl-peptide-hydrolyzing (PGPH) enzyme activity.
(§2) Method for the aforesaid activity assays is as follows: 1 μg of 20S proteasome extracted from rat liver was incubated with a 100 μL solution containing various concentrations of compounds, 50 μM fluorescent peptides and 20 mM Tris-HCl at 37° C. for 1 h, respectively. The fluorescence released from AMC and RNA reagents was measured by a spectrofluorimeter Fluostar OPTIMA and BMG Germany at excitation/emission wavelengths of 380/440 nm and 335/410 nm, respectively. 0.1% DMSO was used as a solvent control. Compared with the fluorescence of solvent control, an inhibition rate was calculated.

[2] = biological target: T2, 20S proteasome extracted from rat liver, trypsin-like (TL) activity (Rattus norvegicus, UniProt P40112+Q9JHW0); assay: Proteasome inhibition, trypsin-like (TL) activity, fluorescent peptide Z-Ala-Arg-Arg-AMC; assay type: biochemical; conditions: rat liver 20S proteasome, 37° C., 1 h; read-out: T-L (IC50)
T2 construct: 20S proteasome extracted from rat liver; from tissue; host or cells: rat liver
Method: as §1
as §2, with “calculated. Said assays used anticancer drug bortezomib (leukemia drug), namely PS341 as compound for positive control.” for “calculated.”

[3] = biological target: T3, 20S proteasome extracted from rat liver, peptidyl-glutamyl-peptide-hydrolyzing (PGPH) enzyme activity (Rattus norvegicus, UniProt P28073+Q9JHW0); assay: Proteasome inhibition, PGPH activity, fluorescent peptide Z-leu-leu-Glu-βNA; assay type: biochemical; conditions: rat liver 20S proteasome, 37° C., 1 h
T3 construct: 20S proteasome extracted from rat liver; from tissue; host or cells: rat liver
Method: as §1
as §2, with “calculated. Said assays used anticancer drug bortezomib (leukemia drug), namely PS341 as compound for positive control.” for “calculated.”

[4] = test system: HL-60 human leukemia cell; assay: Preliminary anti-tumor screening in vitro, MTT method; assay type: cell-based; set-up: key to Test results: +++: inhibition rates at three doses are greater than 50%; ++: inhibition rates at two doses are greater than 50%; +: inhibition rate at one dose is greater than 50%; conditions: HL-60, MTT; for Test results: number of doses with inhibition > 50%; for inhibition at 0.05 µM / inhibition at 0.5 µM / inhibition at 5 µM: Homo sapiens, read-out: Inhibition rate %
Method: (§3) The test methods used in this test example is the routine method for anti-tumor activities test in pharmaceutical area, for example, referring to the following reference: (J. Immunol Method, 1983, 65, 55).
(§4) Test models: A: MTT method (HL-60 human leukemia); B: SRB method (BGC-823 human gastric cancer); C: SRB method (Bel-7402 human hepatocarcinoma); D: SRB method (KB human nasopharyngeal carcinoma).
(§5) The aforesaid tests were carried out with the compounds of Examples 1-26 in the present invention, test results are shown in Tables 2-5.

[5] = test system: BGC-823 human gastric cancer cell; assay: Preliminary anti-tumor screening in vitro, SRB method; assay type: cell-based; set-up: key to Test results: +++: inhibition rates at three doses are greater than 50%; ++: inhibition rates at two doses are greater than 50%; +: inhibition rate at one dose is greater than 50%; conditions: BGC-823, SRB; for Test results: number of doses with inhibition > 50%; for inhibition at 0.05 µM / inhibition at 0.5 µM / inhibition at 5 µM: Homo sapiens, read-out: Inhibition rate %
Method: as §3, §4, §5

[6] = test system: Bel-7402 human hepatocarcinoma cell; assay: as above; assay type: cell-based; set-up: key to Test results: +++: inhibition rates at three doses are greater than 50%; ++: inhibition rates at two doses are greater than 50%; +: inhibition rate at one dose is greater than 50%; conditions: Bel-7402, SRB; for Test results: number of doses with inhibition > 50%; for inhibition at 0.05 µM / inhibition at 0.5 µM / inhibition at 5 µM: Homo sapiens, read-out: Inhibition rate %
Method: as §3, §4, §5

[7] = test system: KB human nasopharyngeal carcinoma cell; assay: as above; assay type: cell-based; set-up: key to Test results: +++: inhibition rates at three doses are greater than 50%; ++: inhibition rates at two doses are greater than 50%; +: inhibition rate at one dose is greater than 50%; conditions: for inhibition at 0.05 µM / inhibition at 0.5 µM / inhibition at 5 µM: Homo sapiens, read-out: Inhibition rate %; for Test results: number of doses with inhibition > 50%
Method: as §3, §4, §5

[8] = test system: BGC-823 (human gastric carcinoma cell strain); assay: In vitro anti-tumor activity (IC50), standard MTT method; assay type: cell-based; conditions: 72 h, average of three determinations
Method: (§6) HL-60, BXPC-3 and U266 were obtained from the American Type Culture Collection (Manassas, Va.), and BGC-823 (human gastric carcinoma cell strain) was obtained from China Pharmaceutical University.
(§7) Test methods: HL-60 cells were cultured in IMDM medium containing 20% fetal bovine serum at 37° C. in 5% CO2; BGC-823 cells and BXPC-3 cells were cultured in RPMI1640 medium containing 10% fetal bovine serum at 37° C. in 5% CO2; U266 cells were cultured in RPMI1640 medium containing 15% fetal bovine serum at 37° C. in 5% CO2.
(§8) The cell growth was measured by the standard MTT method. A dispersions (150 μL, containing 3000 cells) medium was added into each well of a 96-well plate and allowed to grow, after 24 h, ten kinds of medium (50 μL) containing different concentrations of drugs were added into the corresponding wells, and continued to incubate for 72 h. Then a solution containing 5 mg/ml MTT (20 μL) was added into each well and incubated for another 4 h at 37° C. The plate was then centrifugated at 1000 rpm at 4° C. for 5 min, and the medium in upper layer was carefully discarded. The precipitates were dissolved in 100 μL of DMSO, and absorbance was read with an Infinite M200 (Tecan, Austria) microplate reader at 540 nm.
(§9) The result was expressed as IC50 value, which is the average value of three independent determinations.

[9] = test system: BXPC-3 (human pancreatic cancer cell strain); assay: as above; assay type: cell-based; conditions: 72 h, average of three determinations
Method: as §6, §7, §8, §9

[10] = test system: HL-60 (promyelocytic leukemia cell strain); assay: as above; assay type: cell-based; conditions: Homo sapiens, 72 h, average of three determinations
Method: as §6, §7, §8, §9

[11] = test system: U266 (multiple myeloma cell strain); assay: as above; assay type: cell-based; conditions: Homo sapiens, U-266, 72 h, average of three determinations
Method: as §6, §7, §8, §9

Row | Compound | IC50 [1] | IC50 [2] | IC50 [3] | Test results [4] | inhibition at 0.05 µM [4] | inhibition at 0.5 µM [4] | inhibition at 5 µM [4] | Test results [5] | inhibition at 0.05 µM [5] | inhibition at 0.5 µM [5] | inhibition at 5 µM [5] | Test results [6] | inhibition at 0.05 µM [6] | inhibition at 0.5 µM [6] | inhibition at 5 µM [6] | inhibition at 0.05 µM [7] | inhibition at 0.5 µM [7] | inhibition at 5 µM [7] | Test results [7] | melting point | also measured
1 | CC(C)C[C@H](NC(=O)[C@H](Cc1ccccc1)NC(=O)[C@H](Cc1ccc(O)cc1)NC(=O)c1cnccn1)B1OC2CC3C[C@@H](C3(C)C)[C@]2(C)O1 (stereo partly drawn) [Compound 5d, Pinanediol N-pyrazineformyl-L-tyrosyl-L-phenylalanyl-L-leucine Borate] | 0.295 ± 0.049 nM | > 20 nM | 4.76 ± 1.31 nM | + | -11.8% | 35.9% | 88.9% | ++ | 23.6% | 93.6% | 97.8% | ++ | 5.52% | 52% | 93.1% | 0.83% | 73.2% | 94.8% | ++ | 90 to 92 °C | –
2 | CC(C)C[C@H](NC(=O)[C@H](CC(C)C)NC(=O)[C@H](Cc1ccc2ccccc2c1)NC(=O)c1cnccn1)B(O)O [Compound 6m, N-pyrazineformyl-L-naphthylalanyl-L-leucyl-L-leucine Boronic Acid] | 0.22 ± 0.07 nM | > 20 nM | 8.33 ± 2.49 nM | ++ | 4.61% | 85.2% | 87.8% | +++ | 60.3% | 81.9% | 97% | ++ | 30.3% | 57.7% | 95.2% | 40.8% | 86.4% | 94.7% | ++ | – | IC50 [8]: 1720 nM; IC50 [9]: 43.5 nM; IC50 [10]: 15 nM; IC50 [11]: 120 nM
3 | CC(C)C[C@H](NC(=O)[C@H](Cc1ccc2ccccc2c1)NC(=O)[C@H](CC(C)C)NC(=O)c1cnccn1)B1OC2CC3C[C@@H](C3(C)C)[C@]2(C)O1 (stereo partly drawn) [Compound 5f, Pinanediol N-pyrazineformyl-L-leucyl-L-naphthylalanyl-L-leucineborate] | 0.37 ± 0.141 nM | > 20 nM | 3.91 ± 1.72 nM | ++ | -19.9% | 81.9% | 88.6% | ++ | 38.3% | 89.2% | 83% | ++ | 3.18% | 83.9% | 92.3% | 3.74% | 93.4% | 95.3% | ++ | 140 to 142 °C | –
4 | CC(C)C[C@H](NC(=O)[C@H](Cc1ccccc1)NC(=O)[C@H](Cc1ccc2ccccc2c1)NC(=O)c1cnccn1)B1OC2CC3C[C@@H](C3(C)C)[C@]2(C)O1 (stereo partly drawn) [Compound 5b, Pinanediol N-pyrazineformyl-L-naphthylalanyl-L-phenylalanyl-L-leucine Borate] | 0.22 ± 0.106 nM | > 20 nM | > 20 nM | ++ | 21.1% | 88.1% | 88.1% | +++ | 68.6% | 94.8% | 96.5% | ++ | 35.9% | 66.7% | 91% | 40.4% | 95.1% | 95.8% | ++ | 98 to 100 °C | –
5 | CC(C)C[C@H](NC(=O)[C@H](Cc1ccc(O)cc1)NC(=O)[C@H](Cc1ccccc1)NC(=O)c1cnccn1)B1OC2CC3C[C@@H](C3(C)C)[C@]2(C)O1 (stereo partly drawn) [Compound 5c, Pinanediol N-pyrazineformyl-L-phenylalanyl-L-tyrosyl-L-leucine Borate] | 0.335 ± 0.031 nM | > 20 nM | 5.39 ± 0.368 nM | + | -10.5% | 1.94% | 99% | ++ | 3.19% | 56% | 96.1% | + | 4.18% | 16.6% | 91.1% | 1.84% | 29.8% | 91.4% | + | 119 to 120 °C | –
6 | CC(C)C[C@H](NC(=O)[C@H](Cc1ccccc1)NC(=O)[C@H](Cc1ccccc1)NC(=O)c1cnccn1)B(O)O [Compound 6a, N-pyrazineformyl-L-phenylalanyl-L-phenylalanyl-L-leucine Boronic Acid] | 0.546 ± 0.077 nM | > 20 nM | 10.9 ± 3.21 nM | – | – | – | – | – | – | – | – | – | – | – | – | – | – | – | – | 112 to 114 °C | –
